From US10722501B2 (BAYER AKTIENGESELLSCHAFT, priority 2016, dated 2020) come the findings set out here.

By IC50 is commonly meant the concentration needed to halve the response being measured.

The structures appear in SMILES notation.

The test concerns the target T1, recombinant full-length human prolyl endopeptidase (PREP) (Homo sapiens, UniProt P48147).
T1 construct: To recombinant full-length human prolyl endopeptidase (PREP, R&D-Systems, 4308-SE); purchased R&D-Systems 4308-SE
T1 sequence (P48147 1-710): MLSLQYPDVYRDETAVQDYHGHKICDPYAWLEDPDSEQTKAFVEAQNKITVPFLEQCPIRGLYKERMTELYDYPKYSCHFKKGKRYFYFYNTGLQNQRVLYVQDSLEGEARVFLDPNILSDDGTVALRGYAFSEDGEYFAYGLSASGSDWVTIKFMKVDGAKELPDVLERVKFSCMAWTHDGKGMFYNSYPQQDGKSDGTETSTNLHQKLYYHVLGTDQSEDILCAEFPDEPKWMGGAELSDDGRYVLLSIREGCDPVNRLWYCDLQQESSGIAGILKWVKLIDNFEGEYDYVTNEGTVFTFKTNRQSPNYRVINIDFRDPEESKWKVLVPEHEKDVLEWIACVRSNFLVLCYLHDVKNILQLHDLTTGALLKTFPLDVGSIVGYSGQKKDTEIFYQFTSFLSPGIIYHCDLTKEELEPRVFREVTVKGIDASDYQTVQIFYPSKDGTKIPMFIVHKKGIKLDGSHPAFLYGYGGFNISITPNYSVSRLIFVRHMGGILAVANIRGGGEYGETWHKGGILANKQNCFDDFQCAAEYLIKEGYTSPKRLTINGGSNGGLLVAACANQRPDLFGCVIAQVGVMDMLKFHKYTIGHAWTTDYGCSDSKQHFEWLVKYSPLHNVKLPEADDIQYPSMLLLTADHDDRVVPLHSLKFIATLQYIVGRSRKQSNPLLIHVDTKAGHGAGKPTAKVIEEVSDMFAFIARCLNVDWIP
As to the kind of experiment: Biochemical human prolyl endopeptidase (PREP) assay with fluorescently labelled substrate. Conditions: substrate Z-Gly-Pro-AMC 50 μM, 32° C., 60 min; some as mean values from multiple independent determinations. Put shortly: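 Initial rates of fluorescence increase from 50 μM Z-Gly-Pro-AMC cleavage (ex 360/em 465 nm, 60 min, 32° C) give percent PREP activity versus no-compound control, and IC50 is interpolated. Enzyme used at 0.4 nM (final, example) in Tris pH 7.5 with EDTA, GSH, BSA and Brij-35; compounds span 1 nM to 30 μM.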
Regarding `O=C(C1CC(C(F)(F)F)Cc2nn(Cc3ccc(Cl)cn3)c(=O)n21)N1CCC(F)(F)C1` (racemic) [Example 566, (5RS,7RS)-2-[(5-Chloropyridin-2-yl)methyl]-5-[(3,3-difluoropyrrolidin-1-yl)carbonyl]-7-(trifluoromethyl)-5,6,7,8-tetrahydro[1,2,4]triazolo[4,3-a]pyridin-3(2H)-one], the IC50 came out at 4.1 nM. Next, `O=C(C1CC(C(F)(F)F)Cc2nn(Cc3ncc(F)cc3F)c(=O)n21)N1CC[C@H](F)C1` (mixture of isomers) [Example 569, (5RS,7RS)-2-[(3,5-Difluoropyridin-2-yl)methyl]-5-{[(3S)-3-fluoropyrrolidin-1-yl]carbonyl}-7-(trifluoromethyl)-5,6,7,8-tetrahydro[1,2,4]triazolo[4,3-a]pyridin-3(2H)-one]: 0.85 nM; `O=C(C1CC(C(F)(F)F)Cc2nn(Cc3ncc(F)cc3Cl)c(=O)n21)N1CC[C@H](F)C1` (mixture of isomers) [Example 571, (5RS,7RS)-2-[(3-Chloro-5-fluoropyridin-2-yl)methyl]-5-{[(3S)-3-fluoropyrrolidin-1-yl]carbonyl}-7-(trifluoromethyl)-5,6,7,8-tetrahydro[1,2,4]triazolo[4,3-a]pyridin-3(2H)-one]: 1.1 nM.

Turning to `O=C(C1CC(C(F)(F)F)Cc2nn(Cc3ncc(F)cc3F)c(=O)n21)N1CCC(F)(F)C1` (racemic) [Example 573, (5RS,7RS)-2-[(3,5-Difluoropyridin-2-yl)methyl]-5-[(3,3-difluoropyrrolidin-1-yl)carbonyl]-7-(trifluoromethyl)-5,6,7,8-tetrahydro[1,2,4]triazolo[4,3-a]pyridin-3(2H)-one], the IC50 is 5.9 nM.

As to `O=C(C1CC(C(F)(F)F)Cc2nn(Cc3ncc(F)cc3Cl)c(=O)n21)N1CCC(F)(F)C1` (racemic) [Example 575, (5RS,7RS)-2-[(3-Chloro-5-fluoropyridin-2-yl)methyl]-5-[(3,3-difluoropyrrolidin-1-yl)carbonyl]-7-(trifluoromethyl)-5,6,7,8-tetrahydro[1,2,4]triazolo[4,3-a]pyridin-3(2H)-one], the IC50 is 7.4 nM.

Take `O=C(C1CC(C(F)(F)F)Cc2nn(Cc3ccc(C(F)(F)F)nc3)c(=O)n21)N1CC(F)C(F)C1` (racemic) [Example 582, (5RS,7RS)-5-{[rel-(3R,4R)-3,4-Difluoropyrrolidin-1-yl]carbonyl}-7-(trifluoromethyl)-2-{[6-(trifluoromethyl)pyridin-3-yl]methyl}-5,6,7,8-tetrahydro[1,2,4]triazolo[4,3-a]pyridin-3(2H)-one]: the IC50 is 140 nM. Under `CC(c1ccc(Cl)cc1)n1nc2n(c1=O)C(C(=O)N1CCCC1)CCC2` (single isomer, unassigned) [Example 4, (5RS)-2-[(1 RS)-1-(4-Chlorophenyl)ethyl]-5-(pyrrolidin-1-ylcarbonyl)-5,6,7,8-tetrahydro[1,2,4]triazolo[4,3-a]pyridin-3(2H)-one] stands 2.2 nM; under `CC(c1ccc(Cl)cc1)n1nc2n(c1=O)C(C(=O)N1CCCC1)CCC2` (single isomer, unassigned) [Example 5, (5RS)-2-[(1 RS)-1-(4-Chlorophenyl)ethyl]-5-(pyrrolidin-1-ylcarbonyl)-5,6,7,8-tetrahydro[1,2,4]triazolo[4,3-a]pyridin-3(2H)-one], 8 nM.

Take `O=C(C1CCCc2nn(Cc3ccc(Cl)nc3)c(=O)n21)N1CCCC1` (single isomer, unassigned) [Example 32, (5RS)-2-[(6-Chloropyridin-3-yl)methyl]-5-(pyrrolidin-1-ylcarbonyl)-5,6,7,8-tetrahydro[1,2,4]triazolo[4,3-a]pyridin-3(2H)-one]: the IC50 came out at 1.48 nM. Next, `O=C(C1CCCc2nn(Cc3ccc(Cl)cn3)c(=O)n21)N1CCCC1` (single isomer, unassigned) [Example 34, (5RS)-2-[(5-Chloropyridin-2-yl)methyl]-5-(pyrrolidin-1-ylcarbonyl)-5,6,7,8-tetrahydro[1,2,4]triazolo[4,3-a]pyridin-3(2H)-one]: 7.5 nM; `O=C(C1CCCc2nn(Cc3ccc(C(F)(F)F)nc3)c(=O)n21)N1CCCC1` (single isomer, unassigned) [Example 85, (5RS)-5-(Pyrrolidin-1-ylcarbonyl)-2-{[6-(trifluoromethyl)pyridin-3-yl]methyl}-5,6,7,8-tetrahydro[1,2,4]triazolo[4,3-a]pyridin-3(2H)-one]: 2.1 nM; `O=C(C1CCCc2nn(Cc3cccc(C(F)(F)F)c3)c(=O)n21)N1CC(O)C1` (single isomer, unassigned) [Example 98, (5RS)-5-[(3-Hydroxyazetidin-1-yl)carbonyl]-2-[3-(trifluoromethyl)benzyl]-5,6,7,8-tetrahydro[1,2,4]triazolo[4,3-a]pyridin-3(2H)-one]: 257 nM. As for `Cc1nc(C)c(Cn2nc3n(c2=O)C(C(=O)N2CCCC2)CCC3)nc1C` (single isomer, unassigned) [Example 104, (5RS)-5-(Pyrrolidin-1-ylcarbonyl)-2-[(3,5,6-trimethylpyrazin-2-yl)methyl]-5,6,7,8-tetrahydro[1,2,4]triazolo[4,3-a]pyridin-3(2H)-one], the 50% inhibitory concentration (IC50) worked out at 0.46 nM.

As for `O=C(C1CCCc2nn(Cc3cc(C(F)(F)F)c(Cl)cn3)c(=O)n21)N1CCCC1` (single isomer, unassigned) [Example 107], the concentration for half-maximal inhibition (IC50) turned out to be 2.1 nM.

As to `Cc1ccc(Cn2nc3n(c2=O)C(C(=O)N2CC(F)(F)C2)CCC3)cc1` (single isomer, unassigned) [Example 115, (5RS)-5-[(3,3-Difluoroazetidin-1-yl)carbonyl]-2-(4-methylbenzyl)-5,6,7,8-tetrahydro[1,2,4]triazolo[4,3-a]pyridin-3(2H)-one], the IC50 came to 1.1 nM.

For the molecule `Cc1ccc(Cn2nc3n(c2=O)C(C(=O)N2CC[C@H](O)C2)CCC3)cc1` (single isomer, unassigned) [Example 116], the IC50 is 3 nM.

Take `Cc1ccc(Cn2nc3n(c2=O)C(C(=O)N2CCC(=O)C2)CCC3)cc1` (single isomer, unassigned) [Example 119, (5RS)-2-(4-Methylbenzyl)-5-[(3-oxopyrrolidin-1-yl)carbonyl]-5,6,7,8-tetrahydro[1,2,4]triazolo[4,3-a]pyridin-3(2H)-one]: the IC50 worked out at 1.4 nM. Next, `Cc1ccc(Cn2nc3n(c2=O)C(C(=O)N2CC(O)C2)CCC3)cc1` (single isomer, unassigned) [Example 121, (5RS)-5-[(3-Hydroxyazetidin-1-yl)carbonyl]-2-(4-methylbenzyl)-5,6,7,8-tetrahydro[1,2,4]triazolo[4,3-a]pyridin-3(2H)-one]: 4.3 nM; `Cc1ccc(Cn2nc3n(c2=O)C(C(=O)N2CCC4(C2)CC4(F)F)CCC3)cc1` (single isomer, unassigned) [Example 129, (5RS)-{[(3RS)-1,1-Difluoro-5-azaspiro[2.4]hept-5-yl]carbonyl}-2-(4-methylbenzyl)-5,6,7,8-tetrahydro[1,2,4]triazolo[4,3-a]pyridin-3(2H)-one]: 10 nM.

As to `CC1Cc2nn(Cc3ccc(C(F)(F)F)nc3)c(=O)n2C(C(=O)N2CC(O)C2)C1` (single isomer, unassigned) [Example 135, (5RS,7RS)-5-[(3-Hydroxyazetidin-1-yl)carbonyl]-7-methyl-2-{[6-(trifluoromethyl)pyridin-3-yl]methyl}-5,6,7,8-tetrahydro[1,2,4]triazolo[4,3-a]pyridin-3(2H)-one], the IC50 came out at 34.5 nM. As for `CC1Cc2nn(Cc3ccc(C(F)(F)F)nc3)c(=O)n2C(C(=O)N2CC[C@H](F)C2)C1` (single isomer, unassigned) [Example 137], the IC50 was determined as 130 nM.

Consider `CC1Cc2nn(Cc3ccc(C(F)(F)F)nc3)c(=O)n2C(C(=O)N2CC[C@H](F)C2)C1` (single isomer, unassigned) [Example 138], for which the half-maximal inhibitory concentration (IC50) worked out at 1 nM. Next, `Cc1ccc(Cn2nc3n(c2=O)C(C(=O)N2CCCC2)C(C)CC3)cc1` (single isomer, unassigned) [Example 139, (5RS,6RS)-6-Methyl-2-(4-methylbenzyl)-5-(pyrrolidin-1-ylcarbonyl)-5,6,7,8-tetrahydro[1,2,4]triazolo[4,3-a]pyridin-3(2H)-one]: 0.87 nM. Under `Cc1ccc(Cn2nc3n(c2=O)C(C(=O)N2CCS(=O)(=O)C2)CCC3)cc1` (single isomer, unassigned) [Example 142, (5RS)-5-[(1,1-Dioxido-1,3-thiazolidin-3-yl)carbonyl]-2-(4-methylbenzyl)-5,6,7,8-tetrahydro[1,2,4]triazolo[4,3-a]pyridin-3(2H)-one] stands 2.55 nM.

`O=C(C1CCc2nn(Cc3ccnc(C(F)(F)F)c3F)c(=O)n21)N1C[C@@H](F)[C@@H](F)C1` (single isomer, unassigned) [Example 176]: the IC50 turned out to be 445 nM.
